Results reported in US11579149B2, “Hippo pathway bioluminescent biosensor” (Queen's University at Kingston, priority 2017, dated 2023).

Key:
LATS kinase activity [1] = experiment: LATS-BS validation in transfected HEK293 cells (luciferase assay / western blot); format: cell-based, human; conditions: HEK293 co-transfected with LATS-BS and MST2, 10 μM LPA for 1 hour before collection
Experimental: In a validation study, LATS-BS was transfected alone or together with LATS2 or/and MST2 into HEK293 cells and biosensor activity or NLuc-YAP15-S127 phosphorylation status were determined 48 hours after transfection by luciferase assay or western blot, respectively. As depicted in FIG. 2C, HEK293 cells transfected with LATS-BS alone had low luciferase activity and this was correlated with a low degree of Nluc-YAP15-S127 phosphorylation. Co-transfection of LATS-BS with MST2 was associated with increases in both Nluc-YAP-S127 phosphorylation and luciferase activity, and this effect was suppressed with lysophosphatidic acid (LPA), an inhibitor of the Hippo pathway. For lysophosphatidic acid (LPA) treatment, cells were stimulated with 10 μM LPA for 1 hour before collection (n=3). LATS-BS co-expression with both MST2 and LATS2 was correlated with further increases in Nluc-YAP15-S127 phosphorylation and luciferase activity. Collectively, these observations are consistent with a model where MST2 activates LATS2, which phosphorylates Nluc-YAP15-S127, leading to binding with Cluc-14-3-3 and reconstitution of active luciferase.

LATS kinase activity [2] = experiment: LATS-BS under stimuli regulating Hippo signaling (in vitro luciferase assay and live cell luciferase imaging); format: cell-based, human; conditions: cell lysates (luciferase assay) and live cells (BLI)
Experimental: For live cell imaging, LATS-BS or a pGL3-control vector were transfected into HEK293, MDA-MB-231 or A549 cells. After 48 hours, cells were trypsinized and collected in a black, clear bottomed, 96-well plate. 150 μg/mL D-luciferin (D-Luciferin, Potassium Salt, GoldBio #LUCK-250) in media was added to each well 5-10 min before imaging. Exposure time for images was approximately 3 min/plate. Imaging was performed using a LightTools Research system (Synopsys, Ltd., Mountain View, Calif., USA) dark box and a Hamamatsu ORCA-Flash4.0 V2 digital CMOS camera over the course of 20 minutes to establish optimal peak luciferase activity. The bioluminescence of the regions of interest was analyzed for total emission flux using Image-Pro® Plus software (Media Cybernetics, Inc., Rockville, Md., USA).
Experiments were conducted to further validate the LATS intermolecular biosensor and explore potential applications for its use. The LATS-BS responded to numerous signals reported to modulate Hippo pathway activity, including cell confluency, drugs activating Hippo signaling (Forskolin, PI3K inhibitor, PDK inhibitor, F-IBMX, and 2-deoxy-glucose) and Hippo signaling inhibitors (LPA, EGF, Insulin, S1P, and TPA). The LATS-BS is activated by LATS in various cell lines (e.g., A549, MDA-MB231).
The following compound treatments were used for in vitro luciferase assay and live cells imaging: RAF inhibitor (GW5054, Cayman Chemical, Ann Arbor, Mich., USA), ATR inhibitor (CGK733, Cayman Chemical), PI3K inhibitor 1 (GDC0941, Cayman Chemical), PI3K inhibitor 2 (LY294002, Cayman Chemical), PDK inhibitor (GSK2334470, Cayman Chemical)—10 μM for 4 hours; EGF-100 ng/mL for 1 hour; insulin (Sigma #91077C)—10 μg/ml for 1 hour, F/IBMX (Forskolin, Cayman Chemical/IBMX, Cayman Chemical)—0.1-10 μM for Forskolin and 100 μM for IBMX for 1 hour; L-α-lysophosphatidic acid (LPA) (Sigma #L7260)—0.1-10 μM for 1 hour, sphingosine1-phosphophate (S1P)—1 μM for 1 hour; 12-O-tetradecanoylphorbol-13-acetate (TPA) (#41745; Cell Signaling Technology, Inc., Danvers, Mass., USA)—5 nM for 1 hour; 2-deoxy glucose (#D8375, Sigma-Aldrich Canada Co., Oakville, Ontario, Canada)—25 mM for 1 hour.

Molecule | Nluc-YAP-S127 phosphorylation (western blot) (LATS kinase activity [1]) | LATS-BS luciferase activity (LATS kinase activity [1]; n=3) | LATS-BS response to signals modulating Hippo pathway activity (LATS kinase activity [2])
L-α-lysophosphatidic acid [LPA] | suppressed | suppressed | responded
EGF: Hippo signaling inhibitor | – | – | responded
O=CC[C@@H](O)[C@H](O)[C@H](O)CO [2-deoxy-glucose, 2-deoxy glucose] | – | – | responded
CCCCCCCCCCCCCC(=O)O[C@@H]1[C@@H](C)[C@@]2(O)[C@@H](C=C(CO)C[C@]3(O)C(=O)C(C)=C[C@@H]23)[C@@H]2C(C)(C)[C@]12OC(C)=O [TPA, 12-O-tetradecanoylphorbol-13-acetate] | – | – | responded
CCCCCCCCCCCCC/C=C/[C@@H](O)[C@@H](N)COP(=O)(O)O [S1P, sphingosine1-phosphophate] | – | – | responded
Insulin: Hippo signaling inhibitor (Sigma #91077C) | – | – | responded
CNc1nc(-c2ccc3c(N)n[nH]c3c2)cc(N2C[C@@H](C(=O)NC3CCCCC3)CC[C@H]2C)n1 [PDK inhibitor] | – | – | responded
